According to patent US20220381657A1, “METHOD FOR PREPARING BIOLOGICAL MATERIAL HAVING EXCELLENT LIGHT-TRANSMITTING PROPERTY” (RIKEN, priority 2016, published 2022):
Structures can show the parent of a compound that is named as a salt. Where two headings read alike, the source gives them in different places.

Columns and labels:
[1] = tested on: bovine coagulated blood; experiment: Decoloring screening: heme eluted from bovine coagulated blood (OD420-OD700); settings: decolorization; for 700 nm calibrated 420 nm Average: OD420 calibrated by OD700; for integrated value 500-700 nm Average: integrated absorbance 500-700 nm
Description: A high-throughput screening system for evaluating the decoloring ability of various compounds was constructed. The screening system involved adding an aqueous solution of each compound to bovine coagulated blood and then measuring the absorbance of heme collected in the supernatant.
Specifically, to bovine blood, an equal amount of 8% PFA solution was added, and reacted at 4° C. overnight. The mixed liquid was centrifuged at 1500×g for 5 minutes, and the supernatant containing PFA was discarded. Then, the same amount of PBS as the original volume of blood was added to prepare a coagulated blood sample. To 150 μL of 10 wt % aqueous solution of each compound, 50 μL of the coagulated blood sample was added, and reacted at 37° C. overnight. The reaction solution was centrifuged at 1500×g for 5 minutes, and then 100 μL of the supernatant was added to a plate so as to be subjected to absorbance measurement. A sample which is suspended in water instead of being dissolved in the water has a weak decoloring effect, but none the less has a high absorbance value. […]

[2] = for 400 nm: OD at 400 nm of the chemical
[3] = tested on: Serius
[4] = tested on: fixed brain tissue suspension; experiment: 1st delipidation assay: solubilization of fixed brain tissue suspension, turbidity at 600 nm; set-up: species or system mice; settings: Table 1; 10 wt % chemical, fixed mouse brain suspension, 37° C. overnight; PBS = 1.000
Description: Specifically, brains taken out of mice were sheared with a utility knife and then were disrupted by ultrasonication. To each of the resultant suspensions, an equal volume of 8% PFA solution was added to perform fixation at 4° C. for 1 hour. The resultant mixture was centrifuged to remove the supernatant, and the fixed brain tissue was washed with PBS for 3 times. PBS was added so as to obtain 2 mL of a fixed brain tissue suspension per brain. The fixed brain tissue suspension was diluted by 3.5 folds. To 20 μL of the resultant suspension, 130 μL of each 10 wt % chemical was added and was shaken at 37° C. overnight. Thus obtained mixed solutions were subjected to absorbance (turbidity) measurement at 600 nm. It is expected that a chemical solution which reduces the turbidity of a fixed brain suspension allows reducing light scattering by solubilizing lipids, which act as a scattering factor, in the brain tissue.

[5] = Refractive index of high-concentration aqueous solution; type: physicochemical
Description: The refractive index of an aqueous solution is commonly known to increase in a solute concentration-dependent manner, and the refractive index of a reagent per unit weight of the reagent varies among individual reagents. Accordingly, two properties are required in order to prepare a high refractive index aqueous solution: (1) an extremely high water-solubility and (2) a […] which allows achieving a high refractive index in a low-concentration aqueous solution.

[6] = target: EGFP (Aequorea victoria, UniProt P42212, F64L/H231L/S65T); type: biochemical; settings: for retention of fluorescence of a fluorescent protein: stated in the description
Description: (FIG. 7). […] A mouse hemisphere was treated with use of each 10 wt % chemical solution at 37° C. for 3 days, and was washed with PBS. Subsequently, the mouse hemisphere was subjected to refractive index adjustment with CUBIC-2A.

[7] = Table 3, chemical conc. 70 wt %
[8] = Table 3, chemical conc. 80 wt %

Compound	700 nm calibrated 420 nm Average [1]	integrated value 500-700 nm Average [1]	400 nm [2]	OD400 ([2]; Table 1)	pH (Table 1)	pH ([…])	Fluorescence quench Average ([3]; relative fluorescence)	1st delipidation assay Relative OD600 [4]	RI [5, 7]	OD400 ([2]; Table 3)	pH (Table 3)	also measured
NCC1CCCC(CN)C1 (stereo not shown) [#0070, 1,3-Bis(aminomethyl) cyclohexane]	3.15	1.91	0.079	0.079	13.0	13.0	0.62	0.286				
Cc1cc[n+]([O-])cc1 [#1145, 4- Methylpyridine N-oxide]									1.5073	0.059	7.3	
NCC1CCC(CN)CC1 (stereo not shown) [#0071, 1,4-Bis(aminomethyl) cyclohexane]	3.25	1.90	0.054	0.054	13.3	13.3	0.56	0.318				pH (Table 4): 13.27
NCc1cccnc1 [#1102, 3-Picolylamine]	2.46	1.32	0.056			11.6	0.77		1.4895	0.056	11.6	
CCN(CC)C(=O)c1cccnc1 [#0609, N,N-Diethyl- nicotinamide]										0.056	6.4	RI [5, 8]: 1.4928
Tween ® 40 [#1455]	1.38	1.21	0.083	0.083	6.4	6.4	0.64	0.073				
CCCC[n+]1ccccc1.[Br-] [#0315, 1-Butyl-pyridinium bromide]										0.048	5.6	RI ([5]; Table 3, chemical conc. 85 wt %): 1.5090
NCCCn1ccnc1 [#0484, 1-(3-aminopropyl)imidazole]	4.81	2.64	0.05			12.9	0.72					retention of fluorescence of a fluorescent protein [6]: allows fluorescence of a fluorescent protein to be retained
Cc1ccc(C(=O)C(C)CN2CCCCC2)cc1.Cl (stereo not shown) [#1392, Tolperisone hydrochloride]									1.4939	0.056	5.2	
Cc1cccc[n+]1[O-] [#1140, 2-Methyl-pyridine N-oxide]									1.4919	0.049	6.2	
Cc1cccc(C)c1NC1=NCCCS1.Cl [#1612, Xylazine hydrochloride]									1.4956			
CN(C)CCSC(=N)N [#0830, S-[2-(Dimethyl-amino)ethyl] isothiourea-dihydrochloride]									1.5021	0.047	5.4	
CN(C)CCSSCCN(C)C [#0299, Bis(2-dimethyl-aminoethyl) disulfide dihydrochloride]									1.4937			
CCCCCCCCCCCC[n+]1ccccc1.[Cl-] [#0635, 1-Dodecylpyridinium chloride]	3.86	3.57	0.053	0.053	8.9	8.9	1.04					retention of fluorescence of a fluorescent protein [6]: allows fluorescence of a fluorescent protein to be retained
CC(C)NCCCN [#1027, N-Isopropyl-1,3-diaminopropane]	1.52	1.24	0.061	0.061	13.4	13.4	0.55	0.219				
Decyldimethyl(3- sulfopropyl)ammonium [#0651]	3.73	3.28	0.048	0.048	7.5	7.5	0.97					retention of fluorescence of a fluorescent protein [6]: allows fluorescence of a fluorescent protein to be retained
NCCCNCCCN [#0785, 3,3′-Diamino-dipropylamine]	2.09	1.48										RI ([5]; Table 3, chemical conc. 100 wt %): 1.4895; Fluorescence quench Average [3]: 0.62
Cc1cccc(C)n1 [#1008, 2,6-Lutidine]	2.00	2.16	0.063	0.063	9.9	9.9	0.71	0.314				
CCCC[N+](CCCC)(CCCC)Cc1ccccc1.[Cl-] [#0307, Benzyltributyl- ammonium chloride]												RI [5, 8]: 1.4939
NCCN1CCNCC1 [#0338, N-(2-Aminoethyl) piperazine]										0.062	12.4	RI ([5]; Table 3, chemical conc. 75 wt %): 1.4794
CN(C)C(=N)N(C)C [#1444, 1,1,3,3-Tetramethylguanidine]	1.38	1.15	0.072	0.072	12.4	12.4	0.14	0.124				
CC1(C)CC(N)CC(C)(CN)C1 (stereo not shown) [#1602, Isophoronediamine]	2.08	1.26	0.051	0.051	10.8	10.8	0.53	0.190				
[O-][n+]1ccccc1 [#1078, Pyridine N- oxide]										0.054	6.1	RI ([5]; Table 3, chemical conc. 60 wt %): 1.4795
CN(C)C(=O)Oc1cccc([N+](C)(C)C)c1 [#0864, Neostigmine bromide]									1.4830			2nd quenching assay EGFP fluorescence ([6]; Table 3): quench free; retention of fluorescence of a fluorescent protein [6]: allowing retention of fluorescence of a fluorescent protein
CCCC[n+]1ccccc1.[Cl-] [#0415, 1-Butyl-pyridinium chloride]										0.055	5.5	RI ([5]; Table 3, chemical conc. 90 wt %): 1.4824
CNCC(O)c1cccc(O)c1.Cl (racemic) [#1142, DL- Phenylephrine hydrochloride]												RI [5]: 1.4954
C[C@H](CCC(=O)[O-])[C@H]1CC[C@H]2[C@@H]3CC[C@@H]4C[C@H](O)CC[C@]4(C)[C@H]3C[C@H](O)[C@]12C.[Na+] [#0562, Sodium deoxycholate]	1.18	0.98	0.054	0.054	8.3	8.3	1.08	0.170				
CN(C)CCOC(c1ccccc1)c1ccccc1.Cl [#0809, Diphen- hydramine hydrochloride]									1.4990			
Cc1ccnc(C)c1 [#1312, 2,4-Lutidine]	2.47	2.59	0.051	0.051	7.6	7.6	0.84	0.325				
